A melting point compilation (Tetko et al.)

Row | Compound | melting point [°C]
1 | Cc1cc(C)c2c(=O)[nH][nH]c2n1 | 249 to 251
2 | CCOC(=O)C1CC(=O)NN1c1ncccc1Cl (stereo not drawn) | 135 to 137
3 | O=C(NC1CC=CCC1)C(F)(F)F (stereo not drawn) | 58 to 60
4 | Brc1c[nH]c2nc(C3CCCO3)nc-2c1 (stereo not drawn) | 219 to 221
5 | Clc1ncnc2ccc(Br)cc12 | 166 to 168
6 | CC(C)C(NC(=O)c1ccccc1F)C(=O)O (stereo not drawn) | 116 to 118
7 | Nc1ccc(CSc2ccccn2)cc1 | 103 to 105
8 | O=C(O)c1cccn2ccnc12 | 266 to 268
9 | CC(C)(C)OC(=O)N1CCC(N2CC(O)C2)CC1 | 91 to 93
10 | CS(=O)(=O)Nc1cccc2c1CCCN2 | 117 to 119
11 | CC(=O)N1CCN(c2ccc(CO)cc2)CC1 | 146 to 148
12 | CN(CC(=O)O)C(=O)c1ccsc1 | 56 to 57
13 | CC(C)(C)C(=O)C(Cl)Cl | 50 to 52
14 | Sc1nnc(NC2CC2)s1 | 170 to 172
15 | CCOC(=O)c1cc(N2CCNC(=O)C2)ccc1N | 126 to 128
16 | CC(C)c1nnc(C(C)C)[nH]1 | 147 to 149
17 | NS(=O)(=O)C1CCCC1 | 76 to 78
18 | NC(=O)NCCCCCC(=O)O | 175 to 177
19 | COC(=O)NC1(C(=O)O)CCCC1 | 131 to 133
20 | Cc1cc(C=O)c(C)n1-c1ccc(F)cc1F | 133 to 135
21 | O=C(O)Cc1csc(Cc2ccccc2)n1 | 128 to 130
22 | O=C(O)c1cc2cc(Br)ccc2[nH]1 | 283 to 285
23 | Nn1c(S)nnc1-c1ccccc1Cl | 110 to 113
24 | O=C(O)c1cccc(S(=O)(=O)N2CCCc3ccccc32)c1 | 98 to 100
25 | O=C(O)c1cc(COc2ccc(Cl)cc2Cl)on1 | 151 to 153

Row | Compound | melting point [°C]
26 | CC(=O)NCCc1ccc(S(=O)(=O)Cl)s1 | 87 to 89
27 | O=C(O)c1ccc(N2CCCC2)c([N+](=O)[O-])c1 | 259 to 261
28 | N#Cc1ccc(S(=O)(=O)Cl)cn1 | 67 to 69
29 | O=C(O)CCCCCN1C(=O)CSC1=S | 85 to 87
30 | COc1ccccc1-c1cnc(CCl)o1 | 86 to 88
31 | CC(=O)c1ccc(-n2cnc3ccccc32)cc1 | 135 to 137
32 | Nc1ccccc1-c1nc(C2CC2)n[nH]1 | 213 to 215
33 | Sc1n[nH]c(-c2cccnc2)n1 | 304 to 306
34 | CN(C)S(=O)(=O)c1ccc(N2CCOCC2)c(N)c1 | 174 to 176
35 | O=C(O)c1ccc(F)cc1-c1ccc(Cl)c(Cl)c1 | 179 to 181
36 | Cc1nc(CSCC(=O)O)cs1 | 155 to 157
37 | O=S1(=O)CCC(NC2CCNCC2)C1 (stereo not drawn) | 84 to 86
38 | Cc1[nH]n(-c2ccc(Br)cc2)c(=N)c1C | 131 to 133
39 | Oc1cccc(-c2nccc(Cl)n2)c1 | 135 to 137
40 | CC(=O)CC(=O)Nc1cccc(C)c1 | 57 to 59
41 | CCN(c1ccccc1)c1ccc(C(=O)O)cc1 | 178 to 180
42 | CCOc1ccc([N+](=O)[O-])cc1C=O | 66 to 68
43 | Cc1ccnn1-c1cccc(N)c1 | 93 to 95
44 | COc1ccc(NC(=O)CCl)c([N+](=O)[O-])c1 | 98 to 100
45 | CCC1(C)NC(=O)N(CCCN)C1=O (stereo not drawn) | 63 to 65
46 | CNS(=O)(=O)CCC(=O)OCc1ccccc1 | 59 to 61
47 | O=[N+]([O-])c1ccc(-c2noc(Cl)n2)cc1 | 118 to 120
48 | CCCCCNCC(N)=O | 64 to 66
49 | CC(=O)Nc1ccc(N)c(Cl)c1 | 113 to 115
50 | COCCOc1ccc(/C(C)=N\O)cc1OC | 124 to 126

Row | Compound | melting point [°C]
51 | COc1cccc(NCCC#N)c1 | 81 to 83
52 | Sc1nnc(-c2c[nH]c3ccccc23)o1 | 218 to 225
53 | COCCOc1ccc(Cl)c(C(=O)O)n1 | 89 to 91
54 | Cc1ccccc1Sc1ccc(C(=O)O)cc1 | 178 to 180
55 | CS(=O)(=O)Nc1cc(F)ccc1N | 121 to 123
56 | CC(C)(C)OC(=O)N1CCc2ncc(N)cc2C1 | 116 to 118
57 | O=C(CC1SC(N2CCCCC2)=NC1=O)Nc1cccc(C(=O)O)c1 (stereo not drawn) | 188 to 190
58 | O=c1[nH]c(S)nc2cc(Cl)ccc12 | 306 to 308
59 | O=C(O)C1CCCCN1S(=O)(=O)c1ccc(Br)s1 (stereo not drawn) | 125 to 127
60 | COc1cc(N)c([N+](=O)[O-])cc1OC | 174 to 176
61 | CC(=O)c1ccc(NC(=O)NC2CC2)cc1 | 161 to 163
62 | Cc1cc(N)nc(N2CCOCC2)n1 | 102 to 104
63 | COc1cc(C=O)ccc1OCc1ccc(Cl)cc1Cl | 114 to 116
64 | O=C(O)C1CCc2ccccc21 (stereo not drawn) | 54 to 56
65 | CCN(CC)C(C(N)=O)c1ccccc1 (stereo not drawn) | 141 to 143
66 | Cc1n[nH]c(C)c1CC(C)C(=O)O (stereo not drawn) | 170 to 172
67 | Cc1cc(C=O)c(C)n1-c1cccc(C(F)(F)F)c1 | 103 to 105
68 | CC(=O)Nc1cc(N)ccc1Cl | 200 to 202
69 | O=C(O)C1CSC(c2cccc(Br)c2)N1 (stereo not drawn) | 165 to 167
70 | Cc1csc(=O)n1CC(=O)O | 193 to 195
71 | Cc1cc(C(C)(C)C)cc(C)c1S(=O)(=O)Cl | 113 to 115
72 | O=C(O)CCSCC(=O)Nc1ccc(Br)cc1 | 148 to 150
73 | Nc1n[nH]c2ccccc12 | 152 to 154
74 | CS(=O)(=O)Nc1ccc(C(=O)CBr)cc1 | 178 to 180
75 | O=C(O)C=Cc1cn(-c2ccccc2)nc1-c1cccs1 | 224 to 226

Row | Compound | melting point [°C]
76 | COCCn1c(S)nc2ccccc21 | 127 to 129
77 | O=C(O)CSc1nccn1-c1ccc(C(F)(F)F)cc1 | 119 to 121
78 | N#CCCN1C(=O)c2ccccc2C1=O | 153 to 155
79 | N#Cc1ccc(Cl)cc1NCC1CC1 | 52 to 54
80 | O=C(O)Cn1nc(-c2ccccc2)ccc1=O | 237 to 239
81 | NC(=O)c1ccc(S(N)(=O)=O)c(N)c1 | 202 to 204
82 | COC(=O)C1CCc2cn[nH]c2C1 (stereo not drawn) | 64 to 66
83 | O=C(O)c1ccc(I)c(Br)c1 | 243 to 245
84 | O=Cc1c(OCC(=O)O)ccc2ccccc12 | 174 to 176
85 | CC(C)c1cc(N)n(C(C)C)n1 | 52 to 54
86 | CC(Cl)C(=O)NCc1ccccc1 (stereo not drawn) | 75 to 77
87 | Nc1cnc(Br)c(Br)c1 | 106 to 108
88 | O=C(CCl)NC(=O)c1ccccc1 | 157 to 159
89 | CCOC(=O)c1sc(-c2ccc(OC)cc2)cc1N | 120 to 122
90 | CCCNC(=O)C1CNc2ccccc2O1 (stereo not drawn) | 129 to 131
91 | Cc1nn(C)c2nc(C(C)C)cc(C(=O)O)c12 | 211 to 213
92 | O=C(O)CN(Cc1ccccc1)Cc1ccccc1 | 195 to 197
93 | CC1CCN(Cc2ccccc2CN)CC1 | 161 to 163
94 | CSc1ccc(CNc2ccc3[nH]c(C)nc3c2)cc1 | 172 to 174
95 | O=C(O)c1cc(Br)c2c(c1)OCO2 | 251 to 253
96 | CC(C)(C)C(=O)Nc1nc(CC(=O)O)cs1 | 222 to 224
97 | Cc1sc(=O)n(CCC(=O)O)c1C | 150 to 152
98 | CCOc1ccc(-c2nc(N)sc2C)cc1 | 98 to 100
99 | COc1ccc2c(c1)C(=O)CCC2 | 55 to 59
100 | CN(C)S(=O)(=O)c1cccc(CCl)c1 | 45 to 47

Row | Compound | melting point [°C]
101 | O=C(O)c1ccnc(OC2CCOC2)c1 (stereo not drawn) | 109 to 111
102 | O=S(=O)(Cl)Cc1c(Cl)cccc1Cl | 70 to 72
103 | Fc1cc(Br)c(F)cc1S | 47 to 49
104 | CC(C)(C)c1cc(N)n(C2CCS(=O)(=O)C2)n1 (stereo not drawn) | 247 to 249
105 | CC(C)NS(=O)(=O)c1ccc(F)c(C(=O)O)c1 | 167 to 169
106 | NC1CCCCC1O (stereo not drawn) | 162 to 164
107 | O=C(O)c1ccnc(OC2CCC2)c1 | 153 to 155
108 | CCOC(=O)c1cc(C)cc(Br)c1N | 44 to 46
109 | Nc1nc2c(s1)CCCC2 | 30 to 32
110 | C=CCn1c(S)nc2cc3ccccc3cc2c1=O | 285 to 287
111 | Cc1csc(NCC(F)(F)F)n1 | 142 to 144
112 | Fc1c(Cl)ccc2c(Cl)ccnc12 | 129 to 131
113 | CCOC(=O)/C(C#N)=C\Nc1cc(Cl)ccc1F | 147 to 149
114 | CCN(CC)C(N)=S | 98 to 102
115 | COC(=O)c1cc(Br)ccc1S(=O)(=O)Cl | 66 to 70
116 | CC(=CC(=O)O)c1ccccc1F | 101 to 103
117 | O=C(CCl)c1ccc2c(c1)CCC2 | 47 to 58
118 | O=C(O)c1cc(=O)n(-c2ccc([N+](=O)[O-])cc2)[nH]1 | 225 to 227
119 | COC(=O)CCc1nnc(N)s1 | 135 to 137
120 | c1cc(C2CCNCC2)[nH]n1 | 146 to 148
121 | CS(=O)(=O)c1c(N)cccc1Cl | 97 to 99
122 | NC(=O)C(O)C1CCOC1 (stereo not drawn) | 84 to 86
123 | O=c1cc(CO)c2ccc(O)cc2o1 | 221 to 223
124 | O=C(CCl)Nc1ccnn1Cc1ccccc1Cl | 119 to 121
125 | CC(C)(C)NC(=O)C1CCCCN1 (stereo not drawn) | 79 to 81

Row | Compound | melting point [°C]
126 | CNc1ccc(Br)nc1 | 57 to 59
127 | CCn1cc(C(=O)O)c(C(C)C)n1 | 122 to 124
128 | Cc1cc(C(=O)O)c(N)cc1F | 219 to 221
129 | O=C(O)CCCCCc1ccc(O)cc1 | 104 to 106
130 | N#CCC(=O)NCC1CCCO1 (stereo not drawn) | 90 to 94
131 | O=[N+]([O-])c1ccccc1C(O)c1cccnc1 (stereo not drawn) | 102 to 104
132 | CC(C)(C)OC(=O)NCCc1nnc2n1CCCC2 | 158 to 160
133 | CC(=O)c1cnc2ccsc2c1 | 132 to 134
134 | CC(C)Oc1ncccc1O | 57 to 59
135 | CCc1ccc(S(C)(=O)=O)cc1C(=O)O | 151 to 153
136 | CN(C)c1nc2cc(C#N)ccc2o1 | 203 to 205
137 | Cc1cc(N)nn1-c1ccccc1 | 79 to 81
138 | NNC(=O)C1CCCC1 | 112 to 114
139 | CC(NC(=O)CCl)c1cccs1 (stereo not drawn) | 92 to 94
140 | CCN(CC)C(=O)Cc1ccc(N)cc1 | 87 to 89
141 | COc1cc(OC)cc(C(N)c2nccn2C)c1 (stereo not drawn) | 99 to 101
142 | OC1CCCc2nc(-c3ccccc3)sc21 (stereo not drawn) | 96 to 98
143 | NC1CCN(C2CCOCC2)C1=O (stereo not drawn) | 50 to 52
144 | FC(F)(F)c1ccc(-n2cccn2)nc1 | 66 to 68
145 | O=Cc1cnn(C2CCS(=O)(=O)C2)c1 (stereo not drawn) | 111 to 113
146 | CC1(c2ccc(Cl)c(Cl)c2)NC(=O)NC1=O (stereo not drawn) | 203 to 207
147 | CC1=C(C(=O)O)CCC1 | 130 to 132
148 | N#Cc1ccc(NC2CC2)cc1 | 79 to 81
